According to patent US20220104481A1, “CRYOPRESERVATION OF STEM CELLS” (TiGenix, S.A.U., priority 2019, published 2022):
“Also recorded” adds a separate entry of the source.

What was measured:
Format in all cases: cell-based, human
ASCs [1] = assay: Post-thaw treatment with NAC in plating medium: cell growth after thawing
Protocol: A 600 mM stock of NAC (SIGMA) was prepared in Milli-Q water (Millipore). This stock was used for pre-treatment and post-treatment by adding directly 50 μL stock solution per well into 5 mL of medium, making a final concentration of 6 mM. For 2 mM, only 16.7 μL were added per well, and in the case of 12 mM, 100 μL of stock were added. DMSO was used as the vehicle for sc79 and LY294. The effect of post-thaw treatment with different concentrations of NAC (post-thaw NAC treatment) on cell growth was also studied. ASCs were frozen (without NAC pretreatment), thawed as discussed above, and then treated with three different NAC concentrations (2, 6 and 12 mM) in complete DMEM prior to plating, and the cell numbers at day 4, 11 and 14 were analysed.

[2] = system: CD206 and CD163 on mature dendritic cells; assay: Surface expression of phagocytic receptors CD206 and CD163 by mDC co-cultured with ASCs (flow cytometry); details: NAC-pretreated ASCs, donors A and B (FIGS. 13, 14)
Protocol: (§1) After differentiation in monoculture or co-culture in vitro (the differentiation conditions, including the cytokines used, concentrations and times of differentiation, are provided in Example 7), macrophages and mDC were harvested using 0.05% trypsin-EDTA for 10 minutes at 37° C., after supernatants were collected and frozen for future cytokine and/or HPLC analysis. After mDC were counted, they were distributed into 96-well V bottom plates for staining (Nunc #249570). Cells were incubated in Blue MACS buffer with 1% human serum for 15 minutes on ice, to block Fcγ receptor-mediated nonspecific antibody binding. Subsequently, cells were stained for 20 minutes on ice with the following antibody mixes (staining in 50 μL of 1:10 antibody dilution; except for CD64, which was 1:20 dilution): Cell viability was assessed by addition of 5 μL of 7AAD per well and staining for 10 minutes on ice, and samples were acquired in a BD Fortessa cytometer. Results were analysed in FSC Express software.

ASCs [3] = assay: ASC identity assay by flow cytometry (CD29, CD73, CD90, CD105); details: 6 mM NAC pretreatment; two weeks in culture post-thawing; donor A (FIG. 7)
[4] = system: mature dendritic cells (mDC); assay: Co-culture of monocytes with ASCs: mDC differentiation, activation clusters (microscopy); details: NAC-pretreated ASCs, donors A and B, transwell co-culture (FIGS. 10, 11)
Protocol: Frozen vials of PBMCs were thawed, counted and CD14^+ CD16^− monocytes were isolated using the Dynabeads Untouched Human Monocytes kit (Dynal #11350D), following the manufacturer's instructions.
Isolated CD14^+ CD16^− monocytes (see above) were plated in 5 mL of RPMIc at 1.5 million cells per 6-well (Falcon #353046), in normoxia. The following factors were added for differentiation into non-polarized M0 macrophages or further polarization into M1, M2 macrophages and mature dendritic cells (mDC) populations in monocultures (based on several publications, including Beyer et al., PLoS One (2012) 7(9): e45466; Erbel et al., J. Vis. Exp. (2013) 76: e50332; Zhou et al, 2014; Tarique et al, American Journal of Respiratory Cell and Molecular Biology 2015; 53(5):676-688.
Immature DC (iDC): RPMIc+5 ng/mL GM-SCF+10 ng/mL IL-4 for 5 days Maturation of DC (mDC): at day 5, add 40 ng/mL LPS (i.e. add 500 μL/well of RPMIc supplemented with 400 ng/mL LPS to the pre-existing media). Human recombinant GM-CSF (#100-22B) and IL-4 (#200-04) were from Peprotech. LPS (#L8274) was from SIGMA. The addition of GM-C SF and IL4 mediates the differentiation to immature dendritic cells (iDC); 5 days later addition of LPS induces the maturation of iDCs to mDCs, and after 2 days the phenotype and function of these mature DC were analysed in the presence or absence of the ASC. Co-Culture Experiments with ASCs […]

[5] = system: CD14 and CD1a on mature dendritic cells; assay: Surface expression of CD14 and CD1a by mDC co-cultured with ASCs (flow cytometry); details: NAC-pretreated ASCs, donors A and B (FIG. 15)
Protocol: as §1, with “software. The effect of NAC pretreatment (according to Example 2) on thawed ASC mediated effects on the surface expression of CD14 and CD1a on mature dendritic cells was also measured by flow cytometry. mDC are CD14-CD1a+. CD1a is the antigen-presenting molecule, and mediates the presentation of antigens by mDC to other cells of the immune system to activate their response. […]” for “software.”

SMILES: CC(=O)N[C@@H](CS)C(=O)O [NAC, N-Acetylcysteine]
- number of viable cells (ASCs [1]; post-thaw treatment with 2 mM NAC, 7 days of culture (FIG. 6)): ~6,300 cells/cm^2
- number of viable cells (ASCs [1]; post-thaw treatment with 2 mM NAC, 11 days of culture (FIG. 6)): ~18,700 cells/cm^2
- number of viable cells (ASCs [1]; post-thaw treatment with 2 mM NAC, 14 days of culture (FIG. 6)): ~18,300 cells/cm^2
- growth rate (ASCs [1]; post-thaw treatment with 2 mM NAC, between days 7 and 11 (FIG. 6)): approximately 3100 cells/cm^2/day
- cell number versus non-treated (ASCs [1]; post-thaw treatment with 2 mM NAC, sustained up to 2 weeks in culture (FIG. 6)): increase in cell number
- cell density versus non-treated (ASCs [1]; post-thaw treatment with 6 mM NAC (FIG. 6)): lower cell densities
- cell density versus non-treated (ASCs [1]; post-thaw treatment with 12 mM NAC (FIG. 6)): lower cell densities
- ASC-mediated upregulation of CD206 and CD163 on mDC [2]: this upregulation was intact; also recorded: did not alter these effects
- expression of ASC identity markers CD29, CD73, CD90 and CD105 (ASCs [3]): does not alter the expression of ASC identity markers
- ASC modulation of mDC activation (no activation clusters) [4]: not disrupted
- ASC-induced formation of CD14+CD1a- regulatory mDC population [5]: does not alter the ability of thawed ASCs to induce the formation of this mDC regulatory population; also recorded: did not modify this effect
